# Laboratory results reported in ChEMBL document CHEMBL1201862, “PubChem BioAssay data set” (2004).
#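 Grown in 96-well plates, cells were treated for 48 hours with each compound at five concentrations. Insufficient inhibition: endpoint recorded as highest concentration tested. At the GI50, growth is halved.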 Activity calls are given as the source filed them. No stated cut-off is given here; in the data, active = GI50 up to about 1.1 µM and inactive = higher.
# Columns and labels:
# Assay in all cases: NCI-60 cell line screen, 48 h
# [1] = system: TK-10
# [2] = system: MOLT-4
# [3] = system: SF-295
# [4] = system: SN12C
# [5] = system: MCF7
# [6] = system: T47D
# [7] = system: UO-31
# [8] = system: OVCAR-8
# [9] = system: OVCAR-4
# [10] = system: SNB-75
# [11] = system: NCI-H460
# [12] = system: A549
# [13] = system: Hs-578T
# [14] = system: HCT-15
# [15] = system: OVCAR-5
# [16] = system: CCRF-CEM
# [17] = system: SK-OV-3
# [18] = system: UACC-257
# [19] = system: SR
# [20] = system: RPMI-8226
# [21] = system: HT-29
# [22] = system: NCI-H23
# [23] = system: SK-MEL-2
# [24] = system: MDA-MB-231
# [25] = system: NCI/ADR-RES
# [26] = system: SNB-19
# [27] = system: KM12
# [28] = system: 786-0
# [29] = system: EKVX
# [30] = system: MDA-N
# [31] = system: HCT-116
# [32] = system: SW-620
# [33] = system: NCI-H522
# [34] = system: A498
# [35] = system: ACHN
# [36] = system: DU-145
# [37] = system: COLO 205
# [38] = system: BT-549
# [39] = system: M14
# [40] = system: SK-MEL-5
# [41] = system: SF-539
# [42] = system: HOP-62
# [43] = system: RXF 393
# [44] = system: HOP-92
# [45] = system: MDA-MB-435
# [46] = system: K562
# [47] = system: CAKI-1
# [48] = system: PC-3
# [49] = system: Malme-3M
# [50] = system: NCI-H226
# [51] = system: UACC-62
# [52] = system: SK-MEL-28
# [53] = system: SF-268
# [54] = system: U-251
# [55] = system: LOX IMVI
# [56] = system: IGROV-1
# [57] = system: HL-60
# [58] = system: OVCAR-3
compound,measurement,setting,value
CC/C=C/C(/C=C/C[C@]1(CC)C[C@H](CC)[C@H](CC(=O)O)OO1)CC (stereo partly drawn),GI50,[1],1.91 µM (inactive)
same,GI50,[2],2.31 µM (inactive)
same,GI50,[3],2.16 µM (inactive)
same,GI50,[4],5.65 µM (inactive)
same,GI50,[5],2.51 µM (inactive)
same,GI50,[6],2.75 µM (inactive)
same,GI50,[7],0.494 µM (active)
same,GI50,[8],2.9 µM (inactive)
same,GI50,[9],1.52 µM (inactive)
same,GI50,[10],6.41 µM (inactive)
same,GI50,[11],1.96 µM (inactive)
same,GI50,[12],1.68 µM (inactive)
same,GI50,[13],1.91 µM (inactive)
same,GI50,[14],2.61 µM
same,GI50,[15],2.34 µM (inactive)
same,GI50,[16],0.492 µM (active)
same,GI50,[17],4.23 µM (inactive)
same,GI50,[18],14.5 µM (inactive)
same,GI50,[19],0.421 µM (active)
same,GI50,[20],1.64 µM (inactive)
same,GI50,[21],1.84 µM (inactive)
same,GI50,[22],2.24 µM (inactive)
same,GI50,[23],4.01 µM (inactive)
same,GI50,[24],4.88 µM (inactive)
same,GI50,[25],2.1 µM (inactive)
same,GI50,[26],5.69 µM (inactive)
same,GI50,[27],1.62 µM (inactive)
same,GI50,[28],1.67 µM (inactive)
same,GI50,[29],1.76 µM (inactive)
same,GI50,[30],1.85 µM (inactive)
same,GI50,[31],2.46 µM (inactive)
same,GI50,[32],2.12 µM (inactive)
same,GI50,[33],1.75 µM (inactive)
same,GI50,[34],14.3 µM (inactive)
same,GI50,[35],1.91 µM (inactive)
same,GI50,[36],1.85 µM (inactive)
same,GI50,[37],1.78 µM (inactive)
same,GI50,[38],6.28 µM (inactive)
same,GI50,[39],8.49 µM (inactive)
same,GI50,[40],2.85 µM (inactive)
same,GI50,[41],1.82 µM (inactive)
same,GI50,[42],1.58 µM (inactive)
same,GI50,[43],2.19 µM (inactive)
same,GI50,[44],1.99 µM (inactive)
same,GI50,[45],2.06 µM (inactive)
same,GI50,[46],3.04 µM (inactive)
same,GI50,[47],1.96 µM (inactive)
same,GI50,[48],1.67 µM (inactive)
same,GI50,[49],12.4 µM (inactive)
same,GI50,[50],20.8 µM (inactive)
same,GI50,[51],5.94 µM (inactive)
same,GI50,[52],2.23 µM (inactive)
same,GI50,[53],3.58 µM (inactive)
same,GI50,[54],1.62 µM (inactive)
same,GI50,[55],0.33 µM (active)
same,GI50,[56],0.353 µM (active)
same,GI50,[57],2.16 µM (inactive)
same,GI50,[58],2 µM (inactive)
